Assay results: the supplement of paper PMC11061612

Legend:
Assay in all cases: Bliss excess, mean over the matrix (fraction); higher = more synergy
[1] = system: COLO-668 (Small Cell Lung Carcinoma)
Method in brief: (§1)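 After 24 hours at 37°C and 5% CO2 in 1536-well plates, cells in DMEM/F12 or RPMI plus 10% FBS received two-drug dose matrices for 72 hours. Viability came from CellTiter-Glo 2.0 luminescence and was scaled as inhibition, anchored at 0 by vehicle wells and at 1 by blank wells. Combination Emax is taken as the second-highest inhibition in the matrix, and Bliss excess as the observed combination effect less EA + EB − EA·EB, with EA and EB the single-agent effects.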

[2] = system: A4-Fuk (B-Lymphoblastic Leukemia)
Method in brief: as §1

[3] = system: OACM5-1 (Esophageal Adenocarcinoma)
Method in brief: as §1

[4] = system: SW872 (Other Solid Carcinomas)
Method in brief: as §1

[5] = system: ALL-SIL (T-Lymphoblastic Leukemia)
Method in brief: as §1

[6] = system: HCC2998 (Colorectal Carcinoma)
Method in brief: as §1

[7] = system: KGN (Other Solid Carcinomas)
Method in brief: as §1

[8] = system: LC-1-sq (Squamous Cell Lung Carcinoma)
Method in brief: as §1

[9] = system: NCI-H1838 (Lung Adenocarcinoma)
Method in brief: as §1

[10] = system: SKN (Other Solid Carcinomas)
Method in brief: as §1

Hey (Ovarian Carcinoma) = system: Hey (Ovarian Carcinoma)
Method in brief: as §1

[11] = system: NCI-H2122 (Lung Adenocarcinoma)
Method in brief: as §1

[12] = system: G-401 (Other Solid Carcinomas)
Method in brief: as §1

[13] = system: SNU-387 (Hepatocellular Carcinoma)
Method in brief: as §1

[14] = system: CADO-ES1 (Ewing's Sarcoma)
Method in brief: as §1

[15] = system: HAL-01 (B-Lymphoblastic Leukemia)
Method in brief: as §1

[16] = system: SK-LU-1 (Lung Adenocarcinoma)
Method in brief: as §1

[17] = system: KOPN-8 (B-Lymphoblastic Leukemia)
Method in brief: as §1

[18] = system: MOG-G-UVW (Low Grade Glioma)
Method in brief: as §1

[19] = system: NCI-H650 (Lung Adenocarcinoma)
Method in brief: as §1

Compound	Bliss excess [1]	Bliss excess [2]	Bliss excess [3]	Bliss excess [4]	Bliss excess [5]	Bliss excess [6]	Bliss excess [7]	Bliss excess [8]	Bliss excess [9]	Bliss excess [10]	Bliss excess (Hey (Ovarian Carcinoma))	Bliss excess [11]	Bliss excess [12]	Bliss excess [13]	Bliss excess [14]	Bliss excess [15]	Bliss excess [16]	Bliss excess [17]	Bliss excess [18]	Bliss excess [19]
C[C@@H]1COCCN1c1cc(C2([S@](C)(=N)=O)CC2)nc(-c2ccnc3[nH]ccc23)n1 [AZD6738] + O=C(c1cc(Cc2n[nH]c(=O)c3ccccc23)ccc1F)N1CCN(C(=O)C2CC2)CC1 [Olaparib] (first compound max 10 µM, 7x7, partner max 10 µM)	0.0193	-0.0081	0.0071	0.0206	0.0291	0.0443	-0.0087	0.0157	-0.138	0.0031	0.0379	-0.0303	0.0454	-0.0225	0.03	0.003	-0.03	-0.0358	0.0629	-0.0227
NC1(C(=O)N[C@@H](CCO)c2ccc(Cl)cc2)CCN(c2ncnc3[nH]ccc23)CC1 [Capivasertib] + CC(=O)c1c(C)c2cnc(Nc3ccc(N4CCNCC4)cn3)nc2n(C2CCCC2)c1=O [Palbociclib] (first compound max 10 µM, 7x7, partner max 10 µM)	-0.0496	-0.0374	-0.0299	0.0237	-0.0889	-0.0745	0.0128	-0.0208	0.0468	-0.0383	0.0123	0.0338	-0.009	-0.0515	-0.0849	-0.0425	-0.0139	-0.0079	0.0666	-0.0413
NC1(C(=O)N[C@@H](CCO)c2ccc(Cl)cc2)CCN(c2ncnc3[nH]ccc23)CC1 [Capivasertib] + CC(C)n1c(=O)n(C)c2cnc3cc(F)c(-c4ccc(OCCCN5CCCCC5)nc4)cc3c21 [AZD1390] (first compound max 10 µM, 7x7, partner max 0.3 µM)	-0.0298	-0.0472	-0.0676	-0.0562	-0.0482	-0.0275	-0.047	-0.0461	-0.123	-0.055	-0.0766	-0.0103	-0.0346	-0.101	-0.039	-0.0354	-0.0747	-0.0611	-0.0278	-0.0899
NC1(C(=O)N[C@@H](CCO)c2ccc(Cl)cc2)CCN(c2ncnc3[nH]ccc23)CC1 [Capivasertib] + CCN(CCO)CCCOc1ccc2c(Nc3cc(CC(=O)Nc4cccc(F)c4)[nH]n3)ncnc2c1 [AZD2811] (first compound max 10 µM, 7x7, partner max 1 µM)	0.0318	-0.0161	-0.0245	-0.0384	-0.0631	-0.0095	-0.0623	0.0488	-0.0356	-0.0219	0.0375	-0.0827	-0.0072	-0.0504	-0.0618	-0.0779	-0.103	-0.0632	0.0415	-0.0281
NC1(C(=O)N[C@@H](CCO)c2ccc(Cl)cc2)CCN(c2ncnc3[nH]ccc23)CC1 [Capivasertib] + COc1nnc2ccc(N3CCC(c4ccc(OCCN5CCN(C)C(=O)[C@H]5C)cc4)CC3)nn12 [AZD5153] (first compound max 10 µM, 7x7, partner max 1 µM)	0.0552	-0.0465	-0.019	-0.0399	-0.0024	-0.0046	0.0358	0.0814	0.0032	0.0238	0.0206	0.0243	0.012	-0.004	0.0331	-0.0429	0.0081	-0.0463	0.0173	-0.0108
NC1(C(=O)N[C@@H](CCO)c2ccc(Cl)cc2)CCN(c2ncnc3[nH]ccc23)CC1 [Capivasertib] + C[C@@H]1COCCN1C2=NC(=NC(=C2)C3(CC3)[S@](=N)(=O)C)C4=C5C=CNC5=NC=C4 [AZD6738] (first compound max 10 µM, 7x7, partner max 10 µM)	-0.0501	-0.0841	0.0338	-0.0244	-0.0322	-0.0629	-0.0783	-0.0984	-0.0733	-0.0477	-0.0402	-0.0658	-0.0856	-0.0613	-0.0284	-0.0267	-0.0162	-0.0253	-0.0348	-0.0441
NC1(C(=O)N[C@@H](CCO)c2ccc(Cl)cc2)CCN(c2ncnc3[nH]ccc23)CC1 [Capivasertib] + Cn1cnc2c(F)c(Nc3ccc(Br)cc3Cl)c(C(=O)NOCCO)cc21 [Selumetinib] (first compound max 10 µM, 7x7, partner max 10 µM)	-0.0088	0.0675	0.0183	0.0256	0.0381	-0.0654	-0.0041	0.0027	-0.0124	-0.0264	-0.0041	0.0107	0.0695	-0.0521	-0.0008	0.0548	-0.0486	0.106	0.0622	-0.0368
CS(=O)(=O)CCNCc1ccc(-c2ccc3ncnc(Nc4ccc(OCc5cccc(F)c5)c(Cl)c4)c3c2)o1 [Lapatinib] + C[C@@H](Oc1cc(-c2cnn(C3CCNCC3)c2)cnc1N)c1c(Cl)ccc(F)c1Cl [Crizotinib] (first compound max 10 µM, 7x7, partner max 10 µM)	-0.0594	-0.0407	-0.0691	-0.0069	0.0033	-0.044	-0.0702	0.0171	-0.0919	-0.0289	-0.0526	-0.0181	-0.0617	-0.0754	-0.0023	-0.0265	-0.0582	-0.0482	0.0013	-0.0521
CC(=O)c1c(C)c2cnc(Nc3ccc(N4CCNCC4)cn3)nc2n(C2CCCC2)c1=O [Palbociclib] + CC1(C)CCC(CN2CCN(c3ccc(C(=O)NS(=O)(=O)c4ccc(NCC5CCOCC5)c([N+](=O)[O-])c4)c(Oc4cnc5[nH]ccc5c4)c3)CC2)=C(c2ccc(Cl)cc2)C1 [Venetoclax] (first compound max 10 µM, 7x7, partner max 1 µM)	-0.0554	-0.0926	0.108	-0.0244	0.0428	-0.0212	0.079	-0.0161	0.0042	-0.0402	0.0511	-0.0327	0.0529	-0.0558	-0.177	-0.0461	0.0024	-0.0341	-0.0282	-0.0508
CC(=O)c1c(C)c2cnc(Nc3ccc(N4CCNCC4)cn3)nc2n(C2CCCC2)c1=O [Palbociclib] + Cc1c2c(nn1C)CSCc1cc(n(C)n1)CSc1cc(c3ccccc3c1)OCCCc1c(C(=O)O)n(C)c3c-2c(Cl)ccc13 [AZD5991] (first compound max 10 µM, 7x7, partner max 1 µM)	-0.0288	0.0579	-0.0456	-0.0184	-0.0576	-0.0746	-0.0665	-0.0587	-0.0634	-0.0465	-0.0205	-0.0218	0.0308	-0.0515	-0.0356	0.0597	-0.0693	0.0082	-0.0122	-0.0583
CC(=O)c1c(C)c2cnc(Nc3ccc(N4CCNCC4)cn3)nc2n(C2CCCC2)c1=O [Palbociclib] + Cn1cnc2c(F)c(Nc3ccc(Br)cc3Cl)c(C(=O)NOCCO)cc21 [Selumetinib] (first compound max 10 µM, 7x7, partner max 10 µM)	0.0008	0.132	-0.0247	-0.0263	-0.0358	0.0041	0	-0.0004	-0.0003	0.0085	0.0222	0.0823	-0.0428	-0.0425	-0.13	0.0297	-0.0422	-0.0208	0.0912	0.0058
Cn1cnc2c(F)c(Nc3ccc(Br)cc3Cl)c(C(=O)NOCCO)cc21 [Selumetinib] + C=CCn1c(=O)c2cnc(Nc3ccc(N4CCN(C)CC4)cc3)nc2n1-c1cccc(C(C)(C)O)n1 [AZD1775] (first compound max 10 µM, partner max 1 µM)	-0.0563	-0.0651	-0.0964	0.0086	-0.0934	-0.0267	-0.115	-0.095	-0.0506	-0.0294	-0.0363	0.0552	-0.0483	-0.0766	-0.114	0.0056	0.0035	0.0681	-0.0144	0.0099
Cn1cnc2c(F)c(Nc3ccc(Br)cc3Cl)c(C(=O)NOCCO)cc21 [Selumetinib] + CC(C)n1c(=O)n(C)c2cnc3cc(F)c(-c4ccc(OCCCN5CCCCC5)nc4)cc3c21 [AZD1390] (first compound max 10 µM, 7x7, partner max 0.3 µM)	0.0314	0.0335	-0.0273	0.0169	-0.0164	0.0076	0.0282	-0.0465	-0.0514	-0.0616	-0.0378	-0.0099	-0.0623	-0.0512	-0.0446	0.0741	-0.02	0.0131	0.0397	-0.0329
Cn1cnc2c(F)c(Nc3ccc(Br)cc3Cl)c(C(=O)NOCCO)cc21 [Selumetinib] + CCN(CCO)CCCOc1ccc2c(Nc3cc(CC(=O)Nc4cccc(F)c4)[nH]n3)ncnc2c1 [AZD2811] (first compound max 10 µM, 7x7, partner max 1 µM)	-0.0161	0.176	0.0404	-0.01	-0.0031	-0.019	-0.0586	-0.0324	-0.0363	-0.068	-0.0165	-0.0258	0.0143	-0.0412	-0.0515	0.0385	-0.098	0.0253	0.0279	0.0056
Cn1cnc2c(F)c(Nc3ccc(Br)cc3Cl)c(C(=O)NOCCO)cc21 [Selumetinib] + C[C@@H]1COCCN1C2=NC(=NC(=C2)C3(CC3)[S@](=N)(=O)C)C4=C5C=CNC5=NC=C4 [AZD6738] (first compound max 10 µM, 7x7, partner max 10 µM)	0.038	-0.0481	-0.0096	0.0211	0.0106	0.0464	-0.0817	0.0238	-0.101	0.0406	-0.0014	0.0539	0.0257	-0.0126	-0.0031	-0.0541	-0.116	-0.154	-0.0662	0.0926
